Experimental data published in US20230083012A1, “DIHYDROPYRIMIDINE DERIVATIVES AND USES THEREOF IN THE TREATMENT OF HBV INFECTION OR OF HBV-INDUCED DISEASES” (priority 2019, published 2023).
pEC50: −log10 of the molar value.

Assays:
HBV = test: Anti-HBV activity in HepG2.2.15 cells (HBV DNA in culture medium by qPCR); assay type: cell-based; details: Hepatitis B virus, HepG2.2.15, 144 h, HepG2.2.15 cells, 6 days treatment, HBV DNA in culture medium quantified by real-time PCR; read-out: EC50
Description: Example 2: Anti-Viral Assay in HepG2.2.15 Cells
(§1) HepG2.2.15 (the HepG2.2.15 cell line can be produced by transfection of the HepG2 cell line as described in Sells, Chen, and Acs 1987 (Proc. Natl. Acad. Sci. USA 84: 1005-1009), and the HepG2 cell line is available from ATCC® under number HIB-8065™)
(§2) HepG2.2.15 cells were plated into 96-well plate in 2% FBS culture medium at the density of 40,000 cells/well and 5,000 cells/well for HBV inhibitory activity and cytotoxicity determination, respectively. After incubation at 37° C., 5% CO2 overnight, cells were treated with medium containing compounds for 6 days with medium and compounds refreshed after 3 days of treatment. Each compound was tested in a 1:3 serial dilutions at 8 different concentrations in triplicate. The highest concentration of the compounds was 10 uM or 1 uM for anti-HBV activity assay and 100 uM for cytotoxicity determination.
The change of HBV DNA level induced by the compounds was assessed by quantitative real-time polymerase chain reaction (qPCR). Briefly, the HBV DNA in the culture medium was extracted using QIAamp 96 DNA Blood Kit according to the manual and then quantified by real-time PCR assay using the primers and probe in the table 2 below.
(§3) 2) DATA Analysis EC50 and CC50 values are calculated by the GRAPTIPAD PRISM software.

[1] = Cytotoxicity determination in HepG2.2.15 cells (CCK-8 cell viability); assay type: cell-based; details: human, 6 days treatment, CCK-8 assay, highest concentration 100 uM
Description: as §1, §2
Cell viability was determined by CCK-8 assay. After 6 days of compounds treatment, 20 μl CCK-8 reagents were added to each well of cytotoxicity assay plates. Cell plates were incubated at 37° C., 5% CO2 for 2.5 h. The absorbance at 450 nm wavelength and the absorbance at 630 nm wavelength as reference was measured.
as §3

Row | Compound | pEC50 (HBV) | CC50 at 6 days [1] [nM]
1 | CCOC(=O)C1=C(CN2CC(F)(F)[C@@H]3[C@H]2CN(CC)N3CCC(C)(C)C(=O)O)NC(c2nccs2)=N[C@H]1c1cccc(F)c1C (single isomer, unassigned) [Compound 90] | 7.69 | 19200
2 | CCOC(=O)C1=C(CN2CC(F)(F)[C@H]3[C@@H]2CCN3CCC(C)(C)C(=O)O)NC(c2nccs2)=N[C@H]1c1ccc(F)c(F)c1Cl (single isomer, unassigned) [Compound 138, 4-((cis)-4-((6-(2-chloro-3,4-difluorophenyl)-5-(ethoxycarbonyl)-2-(thiazol-2-yl)-3,6-dihydropyrimidin-4-yl)methyl)-6,6-difluorohexahydropyrrolo[3,2-b]pyrrol-1(2H)-yl)-2,2-dimethylbutanoic acid] | 9.30 | 14500
3 | CCOC(=O)C1=C(CN2CC(F)(F)C3[C@@H]2CCN3[C@H]2C[C@](C)(C(=O)O)C2)NC(c2nccs2)=N[C@H]1c1cccc(F)c1C (single isomer, unassigned) [Compound 112A] | 8.34 | 28700
4 | COC(=O)C1=C(CN2CC(F)(F)[C@H]3[C@@H]2CN(C(C)=O)N3CCC(C)(C)C(=O)O)NC(c2nccs2)=N[C@H]1c1ccc(F)c(F)c1Cl (single isomer, unassigned) [Compound 79B, 4-((cis)-2-acetyl-4-((6-(2-chloro-3,4-difluorophenyl)-5-(methoxycarbonyl)-2-(thiazol-2-yl)-3,6-dihydropyrimidin-4-yl)methyl)-6,6-difluorohexahydropyrrolo[3,2-c]pyrazol-1(2H)-yl)-2,2-dimethylbutanoic acid] | 7.57 | 54900
5 | CCOC(=O)C1=C(CN2CC(F)(F)[C@@H]3[C@H]2CN(C)N3CCC(C)(C)C(=O)O)NC(c2nccs2)=N[C@@H]1c1ccc(F)nc1C (single isomer, unassigned) [Compound 96] | 7.30 | > 100000
6 | CCOC(=O)C1=C(CN2CC(F)(F)[C@@H]3[C@H]2CN(C)N3CC2CC(C)(C(=O)O)C2)NC(c2nccs2)=N[C@H]1c1cccc(F)c1C (single isomer, unassigned) [Compound 98] | 7.85 | > 6200
7 | CCOC(=O)C1=C(CN2CC(F)(F)[C@@H]3CN([C@H]4CC[C@@H](C(=O)O)CC4)C(=O)[C@@H]32)NC(c2nccs2)=N[C@H]1c1cccc(F)c1C (single isomer, unassigned) [Compound 185A] | 8.27 | 48300
8 | COC(=O)C1=C(CN2CC(F)(F)[C@H]3[C@@H]2CCN3CCC(C)(C)C(=O)O)NC(c2nccs2)=N[C@H]1c1ccc(F)cc1Cl (single isomer, unassigned) [Compound 127, 4-((cis)-4-((6-(2-Chloro-4-fluorophenyl)-5-(methoxycarbonyl)-2-(thiazol-2-yl)-3,6-dihydropyrimidin-4-yl)methyl)-6,6-difluorohexahydropyrrolo[3,2-b]pyrrol-1(2H)-yl)-2,2-dimethylbutanoic acid] | 8.80 | 47200
9 | CCOC(=O)C1=C(CN2CC(F)(F)[C@@H]3CN(C(=O)NCC(C)(C)C(=O)O)C(=O)[C@@H]32)NC(c2nccs2)=N[C@H]1c1cccc(F)c1C (single isomer, unassigned) [Compound 189] | 7.74 | 28200
10 | CCOC(=O)C1=C(CN2CC(F)(F)[C@H]3[C@@H]2CC(=O)N3[C@H]2CC[C@H](C(=O)O)CC2)NC(c2nccs2)=N[C@H]1c1cccc(F)c1C (single isomer, unassigned) [Compound 158B] | 7.28 | 16600
11 | COC(=O)C1=C(CN2CC(F)(F)[C@H]3[C@@H]2CCN3CCC(C)(C)C(=O)O)NC(c2nccs2)=N[C@H]1c1cccc(F)c1C (single isomer, unassigned) [Compound 136, 4-((cis)-6,6-difluoro-4-((6-(3-fluoro-2-methylphenyl)-5-(methoxycarbonyl)-2-(thiazol-2-yl)-3,6-dihydropyrimidin-4-yl)methyl)hexahydropyrrolo[3,2-b]pyrrol-1(2H)-yl)-2,2-dimethylbutanoic acid] | 8.68 | 34400
12 | CCOC(=O)C1=C(CN2CC(F)(F)[C@H]3[C@@H]2CCN3CCC(C)(C)C(=O)O)NC(c2nccs2)=N[C@H]1c1cccc(F)c1Cl (single isomer, unassigned) [Compound 145, 4-((cis)-4-((6-(2-chloro-3-fluorophenyl)-5-(ethoxycarbonyl)-2-(thiazol-2-yl)-3,6-dihydropyrimidin-4-yl)methyl)-6,6-difluorohexahydropyrrolo[3,2-b]pyrrol-1(2H)-yl)-2,2-dimethylbutanoic acid] | 9.05 | 26000
13 | CCOC(=O)C1=C(CN2CC(F)C3C(=O)N(CC(C)(C)C(=O)O)CC32)NC(c2nccs2)=N[C@H]1c1cccc(F)c1C (stereo partly drawn) [Compound 186, 3-((cis)-1-(((S)-5-(ethoxycarbonyl)-6-(3-fluoro-2-methylphenyl)-2-(thiazol-2-yl)-3,6-dihydropyrimidin-4-yl)methyl)-3-fluoro-4-oxohexahydropyrrolo[3,4-b]pyrrol-5(1H)-yl)-2,2-dimethylpropanoic acid] | 8.05 | 66900
14 | CCOC(=O)C1=C(CN2CC(F)(F)[C@H]3[C@@H]2CCN3[C@H](C)CC(C)(C)C(=O)O)NC(c2nccs2)=N[C@H]1c1cccc(F)c1C (single isomer, unassigned) [Compound 105A] | 7.98 | 15200
15 | CCOC(=O)C1=C(CN2CC(F)(F)[C@@H]3[C@H]2CN(C(=O)C(C)C)N3CCC(C)(C)C(=O)O)NC(c2nccs2)=N[C@H]1c1cccc(F)c1C (single isomer, unassigned) [Compound 74] | 7.42 | 16600
16 | CCOC(=O)C1=C(CN2CC(F)(F)C3CN(CC4(C(=O)O)CC4)CC32)NC(c2nccs2)=N[C@H]1c1cccc(F)c1C (stereo partly shown) [Compound 16] | 6.95 | 37200
17 | CCOC(=O)C1=C(CN2CC(F)(F)[C@@H]3[C@H]2CON3CCC(C)(C)C(=O)O)NC(c2nc(C)cs2)=N[C@H]1c1ccc(F)c(F)c1F (single isomer, unassigned) [Compound 174, 4-((cis)-4-((5-(ethoxycarbonyl)-2-(4-methylthiazol-2-yl)-6-(2,3,4-trifluorophenyl)-3,6-dihydropyrimidin-4-yl)methyl)-6,6-difluorohexahydro-1H-pyrrolo[3,2-c]isoxazol-1-yl)-2,2-dimethylbutanoic acid] | 7.82 | > 50000
18 | CCOC(=O)C1=C(CN2CC(F)(F)[C@H]3[C@@H]2CCN3[C@H]2C[C@@H](CC(=O)O)C2)NC(c2nccs2)=N[C@H]1c1cccc(F)c1C (single isomer, unassigned) [Compound 123A] | 8.10 | 18600
19 | CCOC(=O)C1=C(CN2CC(F)(F)C3CN(C(C)C(=O)O)CC32)NC(c2nccs2)=N[C@H]1c1cccc(F)c1C (stereo in doubt) [Compound 14, 2-((cis)-1-(((S)-5-(Ethoxycarbonyl)-6-(3-fluoro-2-methylphenyl)-2-(thiazol-2-yl)-3,6-dihydropyrimidin-4-yl)methyl)-3,3-difluorohexahydropyrrolo[3,4-b]pyrrol-5(1H)-yl)propanoic acid] | 6.86 | > 100000
20 | CCOC(=O)C1=C(CN2CC(F)(F)[C@@H]3CN(S(=O)(=O)[C@H]4C[C@](C)(C(=O)O)C4)C[C@@H]32)NC(c2nccs2)=N[C@H]1c1cccc(F)c1C (single isomer, unassigned) [Compound 205A] | 6.94 | > 50000
